Laboratory results: PubChem BioAssay (NCI)
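Growth conditions: 96-well plates. Treatment: test compound, 48 hours, 5 concentrations. Analysis: linear interpolation between bracketing concentrations; unreached endpoints set to highest concentration. Here, GI50 denotes the concentration required for 50% inhibition of growth. The concentration for full growth arrest is given as TGI.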

Experiments:
Assay in all cases: NCI anticancer screen, dose series, 48 h
UACC-257 melanoma = tested on: UACC-257 melanoma
SF-268 CNS = tested on: SF-268 CNS
SR leukemia = tested on: SR leukemia
K-562 leukemia = tested on: K-562 leukemia
NCI-H522 lung = tested on: NCI-H522 lung
T-47D breast = tested on: T-47D breast
ACHN renal = tested on: ACHN renal
NCI/ADR-RES ovarian = tested on: NCI/ADR-RES ovarian
HOP-62 NSCLC = tested on: HOP-62 NSCLC
RXF 393 renal = tested on: RXF 393 renal
HCT-15 colon = tested on: HCT-15 colon
A549 NSCLC = tested on: A549 NSCLC
U251 CNS = tested on: U251 CNS
TK-10 renal = tested on: TK-10 renal
EKVX NSCLC = tested on: EKVX NSCLC
SK-OV-3 ovarian = tested on: SK-OV-3 ovarian
UACC-62 melanoma = tested on: UACC-62 melanoma
CCRF-CEM leukemia = tested on: CCRF-CEM leukemia
PC-3 prostate = tested on: PC-3 prostate
SK-MEL-5 melanoma = tested on: SK-MEL-5 melanoma
NCI-H460 lung = tested on: NCI-H460 lung
SF-295 CNS = tested on: SF-295 CNS
MALME-3M melanoma = tested on: MALME-3M melanoma
HOP-92 NSCLC = tested on: HOP-92 NSCLC
BT-549 breast = tested on: BT-549 breast
HS 578T breast = tested on: HS 578T breast
OVCAR-4 ovarian = tested on: OVCAR-4 ovarian
CAKI-1 renal = tested on: CAKI-1 renal
SK-MEL-28 melanoma = tested on: SK-MEL-28 melanoma
SW-620 colon = tested on: SW-620 colon
OVCAR-8 ovarian = tested on: OVCAR-8 ovarian
NCI-H226 lung = tested on: NCI-H226 lung
MDA-MB-435 = tested on: MDA-MB-435
MOLT-4 leukemia = tested on: MOLT-4 leukemia
MCF7 breast = tested on: MCF7 breast
SNB-75 CNS = tested on: SNB-75 CNS
UO-31 renal = tested on: UO-31 renal
HCT-116 colon = tested on: HCT-116 colon
NCI-H23 lung = tested on: NCI-H23 lung
IGROV1 ovarian = tested on: IGROV1 ovarian
KM12 colon = tested on: KM12 colon
COLO 205 colon = tested on: COLO 205 colon
SK-MEL-2 melanoma = tested on: SK-MEL-2 melanoma
OVCAR-5 ovarian = tested on: OVCAR-5 ovarian
M14 melanoma = tested on: M14 melanoma
A498 renal = tested on: A498 renal
OVCAR-3 ovarian = tested on: OVCAR-3 ovarian
SN12C renal = tested on: SN12C renal
DU-145 prostate = tested on: DU-145 prostate
RPMI-8226 leukemia = tested on: RPMI-8226 leukemia
786-0 renal = tested on: 786-0 renal
MDA-MB-231 breast = tested on: MDA-MB-231 breast
HT29 colon = tested on: HT29 colon
LOX IMVI melanoma = tested on: LOX IMVI melanoma
SF-539 CNS = tested on: SF-539 CNS
SNB-19 CNS = tested on: SNB-19 CNS
HL-60(TB) leukemia = tested on: HL-60(TB) leukemia

C[C@H](c1ccc(Cl)cc1[N+](=O)[O-])N1C(=O)c2cc(I)ccc2NC(=O)[C@H]1c1ccc(Cl)cc1
GI50 (UACC-257 melanoma): 33.9 µM
TGI (UACC-257 melanoma): > 100 µM
GI50 (SF-268 CNS): > 100 µM
TGI (SF-268 CNS): > 100 µM
GI50 (SR leukemia): 28 µM
TGI (SR leukemia): > 100 µM
GI50 (K-562 leukemia): 77 µM
TGI (K-562 leukemia): > 100 µM
GI50 (NCI-H522 lung): 8.94 µM
TGI (NCI-H522 lung): > 100 µM
GI50 (T-47D breast): 5.37 µM
TGI (T-47D breast): > 100 µM
GI50 (ACHN renal): > 100 µM
TGI (ACHN renal): > 100 µM
GI50 (NCI/ADR-RES ovarian): > 100 µM
TGI (NCI/ADR-RES ovarian): > 100 µM
GI50 (HOP-62 NSCLC): > 100 µM
TGI (HOP-62 NSCLC): > 100 µM
GI50 (RXF 393 renal): 9.07 µM
TGI (RXF 393 renal): > 100 µM
GI50 (HCT-15 colon): > 100 µM
TGI (HCT-15 colon): > 100 µM
GI50 (A549 NSCLC): 6.01 µM
TGI (A549 NSCLC): > 100 µM
GI50 (U251 CNS): > 100 µM
TGI (U251 CNS): > 100 µM
GI50 (TK-10 renal): > 100 µM
TGI (TK-10 renal): > 100 µM
GI50 (EKVX NSCLC): 4.98 µM
TGI (EKVX NSCLC): > 100 µM
GI50 (SK-OV-3 ovarian): > 100 µM
TGI (SK-OV-3 ovarian): > 100 µM
GI50 (UACC-62 melanoma): > 100 µM
TGI (UACC-62 melanoma): > 100 µM
GI50 (CCRF-CEM leukemia): > 100 µM
TGI (CCRF-CEM leukemia): > 100 µM
GI50 (PC-3 prostate): 4.86 µM
TGI (PC-3 prostate): > 100 µM
GI50 (SK-MEL-5 melanoma): > 100 µM
TGI (SK-MEL-5 melanoma): > 100 µM
GI50 (NCI-H460 lung): 6.61 µM
TGI (NCI-H460 lung): > 100 µM
GI50 (SF-295 CNS): 8.18 µM
TGI (SF-295 CNS): > 100 µM
GI50 (MALME-3M melanoma): > 100 µM
TGI (MALME-3M melanoma): > 100 µM
GI50 (HOP-92 NSCLC): 2.79 µM
TGI (HOP-92 NSCLC): > 100 µM
GI50 (BT-549 breast): > 100 µM
TGI (BT-549 breast): > 100 µM
GI50 (HS 578T breast): 6.5 µM
TGI (HS 578T breast): > 100 µM
GI50 (OVCAR-4 ovarian): 7.08 µM
TGI (OVCAR-4 ovarian): > 100 µM
GI50 (CAKI-1 renal): 4.2 µM
TGI (CAKI-1 renal): > 100 µM
GI50 (SK-MEL-28 melanoma): > 100 µM
TGI (SK-MEL-28 melanoma): > 100 µM
GI50 (SW-620 colon): > 100 µM
TGI (SW-620 colon): > 100 µM
GI50 (OVCAR-8 ovarian): > 100 µM
TGI (OVCAR-8 ovarian): > 100 µM
GI50 (NCI-H226 lung): > 100 µM
TGI (NCI-H226 lung): > 100 µM
GI50 (MDA-MB-435): > 100 µM
TGI (MDA-MB-435): > 100 µM
GI50 (MOLT-4 leukemia): 8.76 µM
TGI (MOLT-4 leukemia): > 100 µM
GI50 (MCF7 breast): 6.53 µM
TGI (MCF7 breast): > 100 µM
GI50 (SNB-75 CNS): > 100 µM
TGI (SNB-75 CNS): > 100 µM
GI50 (UO-31 renal): 2.54 µM
TGI (UO-31 renal): > 100 µM
GI50 (HCT-116 colon): 5.78 µM
TGI (HCT-116 colon): > 100 µM
GI50 (NCI-H23 lung): > 100 µM
TGI (NCI-H23 lung): > 100 µM
GI50 (IGROV1 ovarian): 8.21 µM
TGI (IGROV1 ovarian): > 100 µM
GI50 (KM12 colon): > 100 µM
TGI (KM12 colon): > 100 µM
GI50 (COLO 205 colon): > 100 µM
TGI (COLO 205 colon): > 100 µM
GI50 (SK-MEL-2 melanoma): > 100 µM
TGI (SK-MEL-2 melanoma): > 100 µM
GI50 (OVCAR-5 ovarian): > 100 µM
TGI (OVCAR-5 ovarian): > 100 µM
GI50 (M14 melanoma): 85.4 µM
TGI (M14 melanoma): > 100 µM
GI50 (A498 renal): > 100 µM
TGI (A498 renal): > 100 µM
GI50 (OVCAR-3 ovarian): 8.83 µM
TGI (OVCAR-3 ovarian): > 100 µM
GI50 (SN12C renal): > 100 µM
TGI (SN12C renal): > 100 µM
GI50 (DU-145 prostate): > 100 µM
TGI (DU-145 prostate): > 100 µM
GI50 (RPMI-8226 leukemia): > 100 µM
TGI (RPMI-8226 leukemia): > 100 µM
GI50 (786-0 renal): > 100 µM
TGI (786-0 renal): > 100 µM
GI50 (MDA-MB-231 breast): 3.46 µM
TGI (MDA-MB-231 breast): > 100 µM
GI50 (HT29 colon): > 100 µM
TGI (HT29 colon): > 100 µM
GI50 (LOX IMVI melanoma): > 100 µM
TGI (LOX IMVI melanoma): > 100 µM
GI50 (SF-539 CNS): > 100 µM
TGI (SF-539 CNS): > 100 µM
GI50 (SNB-19 CNS): > 100 µM
TGI (SNB-19 CNS): > 100 µM
GI50 (HL-60(TB) leukemia): > 100 µM
TGI (HL-60(TB) leukemia): > 100 µM
